Article PMC5103075, “An immunostimulatory dual-functional nanocarrier that improves cancer immunochemotherapy” (Nature Communications, 2016)
Values after ≈ are worked out from the molar mass of the structure shown. Like-named read-outs stand apart in the source and are kept apart here.

Tests used:
[1] = test system: PC3 cells; test: MTT cytotoxicity in PC3 cells; assay type: cell-based; conditions: Homo sapiens, PC-3, PC3, 72 h, means±s.e.m.
Method: (§1) 4T1.2 or PC3 cells at 2,000 cells/well were seeded in 96-well plates, respectively. […] After 3 days of incubation, 20 μl of 3-(4, 5-dimethylthiazol-2-yl)-2,5-diphenyltetrazoliumbromide (MTT) in DPBS (5 mg ml^−1) was added to each well and cells were further incubated for 2 h. Medium was removed and MTT formazan crystals were solubilized by 100 μl of DMSO per well. Absorbance of each well was measured with a microplate reader at wavelength of 550 nm. Untreated wells were used as controls. Cell viability was calculated as ((ODtreated−ODblank)/(ODcontrol−ODblank) × 100%).

[2] = test system: 4T1.2 cells; test: MTT cytotoxicity in 4T1.2 cells; assay type: cell-based, mouse; conditions: 4T1.2, 72 h; for IC50: means±s.e.m.
Method: as §1

Row | SMILES | IC50 [1] [µg/mL] | Cytotoxicity (tumour cell growth inhibition) ([2]; Fig. 3d) | IC50 ([2]; Mus musculus, read-out: IC50) [µg/mL] | IC50 [2] [µg/mL]
1 | CC(=O)O[C@H]1C(=O)[C@@]2(C)[C@H]([C@H](OC(=O)c3ccccc3)[C@]3(O)C[C@H](OC(=O)[C@H](O)[C@@H](NC(=O)c4ccccc4)c4ccccc4)C(C)=C1C3(C)C)[C@]1(OC(C)=O)CO[C@@H]1C[C@@H]2O [PTX, Paclitaxel] | 0.101 ± 0.0112 (≈ 0.119 µM) | inhibited the tumour cell growth in a concentration-dependent manner | 0.245 ± 0.0211 (≈ 0.286 µM) | 
2 | COc1cccc2c1C(=O)c1c(O)c3c(c(O)c1C2=O)C[C@@](O)(C(=O)CO)C[C@@H]3O[C@H]1C[C@H](N)[C@H](O)[C@H](C)O1 [DOX, doxorubicin] |  |  |  | 0.2686 ± 0.02728 (≈ 0.494 µM)
